Where “and” joins values, the source holds several entries; their conditions need not be identical. Equal entries are not always repeated.
Key:
[1] = target: T1, Inhibitor of nuclear factor kappa-B kinase subunit beta (Homo sapiens) (UniProt O14920); conditions: at 1 µM
T1 sequence (whole entry): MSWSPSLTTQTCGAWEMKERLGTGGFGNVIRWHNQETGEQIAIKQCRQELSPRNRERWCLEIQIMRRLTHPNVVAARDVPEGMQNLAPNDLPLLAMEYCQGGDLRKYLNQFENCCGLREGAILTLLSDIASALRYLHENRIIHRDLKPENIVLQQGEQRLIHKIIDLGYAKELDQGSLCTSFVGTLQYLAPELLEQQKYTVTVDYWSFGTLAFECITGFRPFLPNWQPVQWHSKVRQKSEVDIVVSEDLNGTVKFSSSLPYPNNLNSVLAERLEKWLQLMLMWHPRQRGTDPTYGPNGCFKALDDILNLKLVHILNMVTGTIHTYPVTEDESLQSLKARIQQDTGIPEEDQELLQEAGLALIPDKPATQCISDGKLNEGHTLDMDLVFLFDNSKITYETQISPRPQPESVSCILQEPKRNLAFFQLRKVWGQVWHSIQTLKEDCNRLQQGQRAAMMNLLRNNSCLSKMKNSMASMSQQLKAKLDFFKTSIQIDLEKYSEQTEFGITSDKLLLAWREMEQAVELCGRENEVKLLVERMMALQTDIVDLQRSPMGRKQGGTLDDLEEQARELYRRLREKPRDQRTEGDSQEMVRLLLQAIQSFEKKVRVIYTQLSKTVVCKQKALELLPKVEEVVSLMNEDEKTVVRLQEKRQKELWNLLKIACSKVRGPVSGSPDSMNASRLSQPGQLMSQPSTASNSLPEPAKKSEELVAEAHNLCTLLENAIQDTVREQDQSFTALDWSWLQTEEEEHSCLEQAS

[2] = target: T2, Inhibitor of nuclear factor kappa-B kinase subunit alpha (Homo sapiens) (UniProt O15111); conditions: at 1 µM
T2 sequence (whole entry): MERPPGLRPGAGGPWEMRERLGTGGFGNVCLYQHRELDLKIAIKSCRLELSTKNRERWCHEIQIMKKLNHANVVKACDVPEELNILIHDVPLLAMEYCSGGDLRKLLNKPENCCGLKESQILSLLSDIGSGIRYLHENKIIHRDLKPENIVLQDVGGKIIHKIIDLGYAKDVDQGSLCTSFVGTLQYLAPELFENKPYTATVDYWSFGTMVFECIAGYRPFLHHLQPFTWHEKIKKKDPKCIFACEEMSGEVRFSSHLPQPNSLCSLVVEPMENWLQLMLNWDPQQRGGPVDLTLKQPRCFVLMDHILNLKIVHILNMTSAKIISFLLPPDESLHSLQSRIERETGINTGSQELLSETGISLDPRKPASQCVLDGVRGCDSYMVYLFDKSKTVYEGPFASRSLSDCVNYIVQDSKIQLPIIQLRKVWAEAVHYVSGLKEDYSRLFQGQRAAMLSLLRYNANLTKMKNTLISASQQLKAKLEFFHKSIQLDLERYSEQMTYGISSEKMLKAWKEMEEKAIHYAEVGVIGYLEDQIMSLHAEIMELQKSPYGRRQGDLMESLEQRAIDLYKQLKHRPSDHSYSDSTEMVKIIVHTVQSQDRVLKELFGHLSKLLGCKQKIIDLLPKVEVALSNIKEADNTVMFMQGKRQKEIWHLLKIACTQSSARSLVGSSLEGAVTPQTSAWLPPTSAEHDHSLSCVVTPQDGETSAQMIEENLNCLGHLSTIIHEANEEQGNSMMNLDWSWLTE

| inhibition [1] | inhibition [2] | SMILES |
| --- | --- | --- |
| -1% and 0% | -2% and 1% | CC(C)=Cc1cccc2c1/C(=N/Nc1ccc(S(N)(=O)=O)cc1)C(=O)N2 |
| 0% and -4% | 1% | COc1cc(Nc2ncc(-c3ccccc3)o2)cc(OC)c1 |
| -9% and -6% | 4% and -7% | NS(=O)(=O)c1ccc(N/N=C2\C(=O)Nc3ccc4ncccc4c32)cc1 |
| 1% and -1% | -1% and -2% | COC(=O)Nc1nc2cc(Oc3ccc(NC(=O)Nc4ccccc4)cc3)ccc2[nH]1 |
| -3% | 9% and 3% | CCn1c(-c2nonc2N)nc2c(C#CC(C)(C)O)ncc(OCC3CCNCC3)c21 |
| 5% and 0% | 9% and 7% | Cc1ccc(C(=O)NC2CCCCC2)cc1-c1ccc(C(=O)NCC2CC2)cc1 |
| -7% and -4% | 5% and 4% | COc1cc2ncn(-c3cc(OCc4ccccc4C(F)(F)F)c(C(C)=O)s3)c2cc1OC |
| -3% and -2% | -1% and 0% | NS(=O)(=O)c1ccc(Nc2cc(-c3cccc(O)c3)n[nH]2)cc1 |
| -2% and -1% | 1% and 6% | CCN1CCC(CC(=O)Nc2n[nH]c3nnc(-c4cccc(F)c4F)cc23)CC1 |
| -3% and -1% | 0% and 1% | Nc1nc(-c2ccc(F)cc2)c(-c2ccc3ncccc3n2)s1 |
| 5% and -4% | 2% and -2% | COc1cc2ncnc(Nc3ccc4c(cnn4Cc4ccccc4)c3)c2cc1OC |
| -8% and -6% | 2% and 1% | COc1ccc(-c2oc3ncnc(N)c3c2-c2ccc(NC(=O)Nc3cc(C(F)(F)F)ccc3F)cc2)cc1 |
| -2% and -6% | 1% | COc1ccc(Nc2ncc(-c3ccccc3)o2)cc1OC |
| 0% and -1% | 2% | Cc1c2ccc(N(C)c3ccnc(Nc4cccc(S(N)(=O)=O)c4)n3)cc2nn1C |
| 0% and 6% | -10% | CCc1cccc(NC(=O)Nc2ccc(Oc3ccc4nc(NC(=O)OC)[nH]c4c3)cc2)c1 |
| 0% | -5% and -4% | NC(=O)c1ccc(Oc2nccc(-c3c(-c4ccc(F)cc4)ncn3C3CCNCC3)n2)cc1 |
| -3% and -1% | 1% and 0% | CC(C)c1ccc(-c2cc(-c3c[nH]nc3-c3ccccn3)ccn2)cc1 |
| -5% and -1% | 85% | O=C(Nc1n[nH]c2nc(-c3ccco3)c(Br)cc12)C1CC1 |
| -6% and -1% | 11% | Cc1cc(Cl)cc2c1NC(=O)C2=NNc1ccc(S(N)(=O)=O)cc1 |

| inhibition [1] | inhibition [2] | SMILES |
| --- | --- | --- |
| -5% and -6% | -3% and 1% | c1ccc(Cc2nc3ccc(Nc4ncnc5ccccc45)cc3[nH]2)cc1 |
| -3% | 0% and 11% | CC1=C(C(=O)Nc2ccc3[nH]ncc3c2)C(c2ccc3ccccc3c2)CC(=O)N1 (centres undefined) |
| -5% | 3% and 1% | CNC(=O)c1cncc(/C=C/c2ccccc2Cl)c1 |
| -3% and -5% | 2% | NS(=O)(=O)c1ccc(N/N=C2\C(=O)Nc3ccc(Cl)cc32)cc1 |
| 0% and -5% | 6% and 4% | Cc1ccc(O)cc1Nc1ccnc2cc(-c3ccccn3)ccc12 |
| -4% | 3% and 4% | Cc1nnc(-c2cccc(-c3ccc(C(=O)NCC4CC4)cc3)c2)o1 |
| -5% and -4% | 2% and 3% | CN(c1ccc(NC(=O)Nc2ccc(OC(F)(F)F)cc2)cc1)c1ccnc(Nc2cccc(S(N)(=O)=O)c2)n1 |
| -6% and -4% | 3% and 4% | COc1cc2c(cc1Nc1nc(Nc3ccsc3C(N)=O)c3cc[nH]c3n1)N(C(=O)CN(C)C)CCC2 |
| -2% and -5% | 2% | COc1ccc(COc2ccc(Cc3cnc(N)nc3N)cc2OC)cc1 |
| -3% and -1% | 4% and 2% | CCCN1CCC=C(c2ccc(Nc3nc(Nc4ccccc4C(N)=O)c4cc[nH]c4n3)c(C)c2)C1 |
| -1% and -4% | 4% and 0% | CS(=O)(=O)Nc1ccc(N/C=C2\C(=O)Nc3ccccc32)cc1 |
| -1% and 0% | 2% and 0% | COc1cc2ncn(-c3cc(OCc4ccccc4C(F)(F)F)c(C(N)=O)s3)c2cc1OC |
| -4% | 0% and -2% | c1cnn2ncc(-c3ccnc(Nc4ccc5c(c4)OCCO5)n3)c2c1 |
| -4% | -2% | CCC(=O)Nc1ccc(C)c(-c2ccc(C(=O)NCC3CC3)cc2)c1 |
| 3% and 4% | -3% and -6% | CNC(=O)c1cc(-c2ccc(F)cc2)cc(-c2ccc(S(=O)(=O)N3CCCC3)cc2)c1N |
| -5% and -4% | 8% and 10% | CN(C)CCCn1c(-c2nonc2N)nc2cnccc21 |
| -3% | 2% | CN1CCC(n2cnc(-c3ccc(F)cc3)c2-c2ccnc(N)n2)CC1 |
| -2% and -3% | -2% and 0% | Fc1ccc(-c2ncn(C3CCNCC3)c2-c2ccnc(Oc3ccc4c(c3)OCO4)n2)cc1 |
| -4% | 1% | COc1ccc(-c2nn3ncccc3c2-c2ccnc(Nc3ccc4c(c3)OCCO4)n2)cc1 |

| inhibition [1] | inhibition [2] | SMILES |
| --- | --- | --- |
| 2% and 3% | 4% and 3% | COc1ccc2cc(-c3c(-c4ccncc4)nc(-c4ccc([S+](C)[O-])cc4)n3C)ccc2c1 (centres undefined) |
| -4% and -7% | 2% and 1% | CN(C)C(=O)O[C@@H]1CN[C@@H](C#Cc2cc3ncnc(Nc4ccc(OCc5cccc(F)c5)c(Cl)c4)c3s2)C1 |
| -5% and -2% | 1% and 2% | COc1cc2ncn(-c3cc(OCc4ccccc4S(C)(=O)=O)c(C#N)s3)c2cc1OC |
| -7% and -3% | -1% and 2% | NS(=O)(=O)c1ccc(-c2ccc3c(NC(=O)C4CC4)n[nH]c3c2)cc1 |
| 1% and -2% | 19% and 13% | Fc1ccc(Nc2nccc(-c3c(-c4ccc(C(F)(F)F)cc4)nn4ncccc34)n2)cc1F |
| 3% and -7% | -7% and 2% | CCS(=O)(=O)c1ccc(OC)c(Nc2nccc(N(C)c3ccc4c(C)n[nH]c4c3)n2)c1 |
| -3% and -5% | 0% and 6% | CN(c1ccc(NC(=O)Nc2c(Cl)cccc2Cl)cc1)c1ccnc(Nc2cccc(CS(C)(=O)=O)c2)n1 |
| 0% | -5% and -4% | Fc1ccc(-c2ncn(C3CCNCC3)c2-c2ccnc(Oc3ccc(Oc4ccccc4)cc3)n2)cc1 |
| 0% and -5% | 0% and 1% | Fc1ccc(-c2ncn(CCCN3CCOCC3)c2-c2ccncc2)cc1 |
| -5% and 2% | 2% and 7% | FC(F)(F)CNc1nccc(-c2cnn3ncccc23)n1 |
| 1% and 0% | -4% and -5% | COc1ccc2cc(-c3c(-c4ccncc4)nc(-c4ccc([S+](C)[O-])cc4C)n3C)ccc2c1 (centres undefined) |
| -2% | 3% and 2% | Fc1ccc(-c2ncn(C3CCNCC3)c2-c2ccnc(Oc3ccccc3)n2)cc1 |
| 2% and 1% | -1% and -2% | Cc1cccc(Nc2ncc(-c3ccccc3)o2)c1 |
| -4% | 4% and 1% | Nc1ncnc2occ(-c3ccc(NC(=O)Nc4cc(C(F)(F)F)cc(C(F)(F)F)c4)cc3)c12 |
| -7% and -8% | 6% | COc1ccc(-c2cc(-c3c[nH]nc3-c3ccccn3)ccn2)cc1 |
| 5% and 4% | -2% | CS(=O)(=O)CCNCc1ccoc1-c1ccc2ncnc(Nc3ccc(OCc4ccccc4)cc3)c2c1 |
| -5% and 0% | 15% | Cn1cc(C=C2C(=O)Nc3cccnc32)c2ccccc21 |
| 2% and 3% | 16% and 1% | [O-][S+]1CCN(Cc2ccc(-c3ccc4ncnc(Nc5ccc(OCc6cccc(F)c6)c(Cl)c5)c4c3)o2)CC1 |
| -5% and -4% | 16% and 2% | O=C1Nc2ccc(-c3cccnc3)cc2C1=Cc1cc(Br)c(O)c(Br)c1 |

Reference: ChEMBL document CHEMBL2007661, “Compounds: GSK PKIS; Assays: UNC Frye lab” (2012)
